# Data taken from PMC4297708 (Drug and alcohol dependence, 2014).
# Entries after “also recorded” stand apart in the source; their conditions may differ. Where two headings read alike, the source gives them in different places.
# Columns and labels:
# [1] = molecular target: T1, dopamine transporter (DAT) (Rattus norvegicus, UniProt P23977); assay: DAT uptake inhibition assay; assay type: biochemical
# [2] = molecular target: T1, dopamine transporter (DAT); assay: biochemical; details: for DA/5-HT Ratio: ratio of release potencies
# SERT [3] = molecular target: T2, SERT (Rattus norvegicus, UniProt P31652); assay: 5-HT release assay in synaptosomes; assay type: biochemical; details: read-out: 5-HT Release EC50; rat brain synaptosomes; mean ± SD, n=3; Table 4
# [4] = test system: vesicular monoamine transporter 2 (VMAT2); details: measured with Tyramine, ref Partilla et al., 2006, cited from earlier work; for EC50: read-out: VMAT2 Release EC50
# rats [5] = details: ref Katz et al., 1999b; cited from earlier work
# [6] = cited from earlier work
# DAT = details: highest dose studied, 56 mg/kg; ref Hiranita et al., 2014; cited from earlier work
# sigma receptors = details: ref Hiranita et al., 2014; cited from earlier work
# mice [7] = details: cited from earlier work
# rats [8] = details: ref Hiranita et al., cited from earlier work; for effect on cocaine self-administration dose-effect curve: rats, 2014
# mice [9] = details: range of behaviorally active doses, ref Carroll et al., 2004; cited from earlier work
# rats [10] = details: ref Hiranita et al., 2014; cited from earlier work
# rats [11] = details: rats trained to discriminate cocaine from saline; ref Carroll et al., 2004; cited from earlier work
# CB1Rs = details: increased efficacy of CP 55940 in calcium mobilization; ref Navarro et al., 2009; cited from earlier work
# rats [12] = assay: In vivo microdialysis in the n. accumbens; details: male rats, 1 or 3 mg/kg i.v.; for extracellular (dialysate) DA in n. accumbens: Fig. 7, Fig. 8
# rats [13] = assay: Horizontal locomotor activity; assay type: in vivo; details: male rats, 1 or 3 mg/kg i.v.; Fig. 7, Fig. 8
# human = details: humans; ref Dackis et al., 2003; Malcolm et al., 2006; Hart et al., 2008; cited from earlier work
# [14] = ref Loland et al., 2012; cited from earlier work
# mice [15] = details: mice trained to discriminate cocaine (10 mg/kg) from saline; ref Loland et al. 2012; cited from earlier work
# SERT [16] = molecular target: T2, SERT; details: read-out: 5-HT Release EC50; rat brain synaptosomes; ref Yu et al., 2000; cited from earlier work
# [17] = molecular target: T1, dopamine transporter (DAT); details: read-out: DAT UI IC50; rat brain synaptosomes; ref Yu et al., 2000; cited from earlier work
# DAT Y335A = details: ref Loland et al., 2008; cited from earlier work
# rats [18] = details: ref Rothman et al., 2005; cited from earlier work
# [19] = compared to amphetamine; ref Rothman et al., 2005; cited from earlier work
# [20] = rat brain synaptosomes, Table 4
# [21] = read-out: DA Release EC50, rat brain synaptosomes, mean ± SD, n=3, Table 4
# [22] = rat brain synaptosomes, % maximal release, Table 3
# [23] = read-out: DA Release EC50, rat brain synaptosomes, mean ± SD, n=3, Table 3
# [24] = read-out: DAT UI IC50, rat brain synaptosomes, mean ± SD, n=3, Table 3
# T2 sequence (P31652 whole entry): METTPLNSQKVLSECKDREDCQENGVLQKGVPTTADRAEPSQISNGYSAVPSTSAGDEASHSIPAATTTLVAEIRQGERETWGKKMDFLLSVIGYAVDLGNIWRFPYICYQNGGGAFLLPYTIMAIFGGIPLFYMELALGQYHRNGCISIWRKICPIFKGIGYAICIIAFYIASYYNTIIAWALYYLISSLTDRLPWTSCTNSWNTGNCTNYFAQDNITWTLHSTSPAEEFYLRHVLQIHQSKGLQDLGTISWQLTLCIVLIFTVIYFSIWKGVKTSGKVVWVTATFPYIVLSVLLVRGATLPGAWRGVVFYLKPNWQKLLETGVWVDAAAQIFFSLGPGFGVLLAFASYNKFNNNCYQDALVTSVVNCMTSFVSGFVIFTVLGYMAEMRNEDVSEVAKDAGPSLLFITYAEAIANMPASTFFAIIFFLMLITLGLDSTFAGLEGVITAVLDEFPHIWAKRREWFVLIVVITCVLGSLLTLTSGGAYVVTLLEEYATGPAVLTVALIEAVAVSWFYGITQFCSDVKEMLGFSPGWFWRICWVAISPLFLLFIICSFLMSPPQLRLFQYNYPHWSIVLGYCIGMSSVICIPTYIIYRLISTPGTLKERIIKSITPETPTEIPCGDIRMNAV
# T1 sequence (P23977 whole entry): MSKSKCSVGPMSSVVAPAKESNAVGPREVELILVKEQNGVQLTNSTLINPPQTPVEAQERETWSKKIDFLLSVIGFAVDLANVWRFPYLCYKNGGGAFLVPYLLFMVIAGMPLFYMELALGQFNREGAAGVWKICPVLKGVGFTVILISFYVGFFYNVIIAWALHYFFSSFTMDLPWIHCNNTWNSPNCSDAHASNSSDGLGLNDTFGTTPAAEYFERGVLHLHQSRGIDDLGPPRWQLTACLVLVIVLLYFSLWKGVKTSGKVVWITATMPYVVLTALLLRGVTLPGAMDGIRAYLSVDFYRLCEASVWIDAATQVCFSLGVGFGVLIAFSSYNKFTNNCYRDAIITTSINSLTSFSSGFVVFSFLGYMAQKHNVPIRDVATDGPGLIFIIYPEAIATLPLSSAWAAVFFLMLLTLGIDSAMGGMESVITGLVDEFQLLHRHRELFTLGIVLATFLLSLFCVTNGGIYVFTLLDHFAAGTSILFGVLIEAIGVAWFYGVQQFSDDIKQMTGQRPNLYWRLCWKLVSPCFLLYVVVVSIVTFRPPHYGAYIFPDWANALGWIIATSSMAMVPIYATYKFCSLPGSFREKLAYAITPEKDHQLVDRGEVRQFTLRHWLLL
structure (smiles),measurement,setting,value
CC(NC(C)(C)C)C(=O)c1cccc(Cl)c1 (stereo not drawn) [Bupropion],IC50,[1],0.658 ± 0.178 µM
CC(N)Cc1cccc(F)c1 (stereo not drawn) [PAL-353],DA/5-HT Ratio,[2]; [20],80
same,EC50,[2]; [21],0.0242 ± 0.0011 µM
same,EC50,SERT [3],1.94 ± 0.202 µM
"Cc1ccccc1N1CCNCC1 [PAL-169, 2-Methylphenylpiperazine]",DA Release EMAX,[2]; [22],90 ± 1%
same,EC50,[2]; [23],0.296 ± 0.02 µM
CCCNC(C)C(=O)c1ccccc1 (stereo not drawn) [PAL-359],DA UI IC50 (nM),"[1]; rat brain synaptosomes, mean ± SD, n=3 in triplicate, Table 1",inactive
Cc1cccc(CC(C)N)c1 (stereo not drawn) [PAL-314],DA/5-HT Ratio,[2]; [20],6.5
same,EC50,[2]; [21],0.0333 ± 0.0013 µM
same,EC50,SERT [3],0.218 ± 0.022 µM
CC(C)(N)Cc1ccccc1 [Phentermine],EC50,[2],0.262 ± 0.021 µM
same,VMAT2 Release EC50 (μM),[4],lack VMAT2 activity
same,EC50,[4],> 100 µM
c1ccc(CN2CCNCC2)cc1 [Benzylpiperazine],EC50,"[2]; read-out: DAT Release EC50, mean ± SD, n=3, Table 5",0.307 ± 0.019 µM
same,VMAT2 Release EC50 (μM),[4],lack VMAT2 activity
same,EC50,[4],> 100 µM
CN1[C@@H]2C[C@@H](OC(=O)[C@H](CO)c3ccccc3)C[C@H]1[C@@H]1O[C@@H]12 [scopolamine],effect on effects of cocaine in drug discrimination procedures,rats [5],potentiation of effects of cocaine
Fc1ccc(C(O[C@H]2C[C@H]3CC[C@@H](C2)N3CC2CC2)c2ccc(F)cc2)cc1 [JHW013],locomotor activity,"[6]; fast-onset BZT analogs, ref Li et al., 2011",stimulant effects that were substantially reduced compared to those of cocaine
NCCc1ccccc1 [Phenethylamine],EC50,[2],0.0395 ± 0.0018 µM
CNC(C)Cc1ccc2ccccc2c1 (stereo not drawn) [PAL-1046],DA Release EMAX,[2]; [22],101 ± 3%
same,EC50,[2]; [23],0.01 ± 0.001 µM
CCNC(C)Cc1ccccc1 (stereo not drawn) [PAL-99],DA Release EMAX,[2]; [22],111 ± 13%
CNC(C)C(=O)c1ccc(C)cc1 (stereo not drawn) [Mephedrone],EC50,[2],0.0491 ± 0.0031 µM
"Cc1ccc([C@H]2C[C@@H]3CC[C@H]([C@H]2c2cc(-c4ccc(Cl)cc4)no2)N3C)cc1 [RTI-371, 3β-(4-methylphenyl)-2β-[3-(4-chlorophenyl)isoxazol-5-yl]tropane]",rate of displacement of [125I]RTI-121,DAT,0.320 %/min
same,affinity at sigma receptors,sigma receptors,relatively low affinity at sigma receptors
same,effect on cocaine-induced locomotor stimulation,"mice [7]; preliminary report, ref Navarro et al., 2009",blocked cocaine-induced locomotor stimulation
same,effect on cocaine self-administration dose-effect curve,rats [8],dose-related decreases in the maximum self-administration of cocaine
same,locomotor activity,mice [9],failed to stimulate locomotor activity
same,self-administration of the compound versus vehicle,rats [10],not self-administered at rates above those obtained with vehicle
same,substitution for cocaine (drug discrimination),rats [11],did not substitute
same,modulation of CB1Rs,CB1Rs,positive-allosteric modulation of CB1Rs
"Cc1ccc(N2CCNCC2)cc1 [PAL-233, 4-Methylphenylpiperazine]",IC50,[1]; [24],9.52 ± 0.436 µM
CCCC(C(=O)c1ccc2c(c1)OCO2)N1CCCC1 (stereo not drawn) [MDPV],IC50,[1]; [24],0.0041 ± 6e-05 µM
"Cc1cccc(N2CCNCC2)c1C [PAL-218, 2,3-Dimethylphenylpiperazine]",DA Release EMAX,[2]; [22],66 ± 1%
same,EC50,[2]; [23],1.21 ± 0.118 µM
CN1[C@@H]2CC[C@H]1C[C@@H](OC(=O)C(CO)c1ccccc1)C2 (stereo partly drawn) [atropine],effect on effects of cocaine in drug discrimination procedures,rats [5],potentiation of effects of cocaine
"CC1NCCOC1c1ccccc1 (single isomer, unassigned; (+)) [(+)-Phenmetrazine]",EC50,[2],0.0874 ± 0.0078 µM
same,VMAT2 Release EC50 (μM),[4],completely inactive
same,EC50,[4],> 100 µM
CCN[C@@H](C)Cc1ccc2ccccc2c1 [PAL-1045],DA Release EMAX,[2]; [22],78 ± 5%
same,EC50,[2]; [23],0.046 ± 0.011 µM
same,extracellular (dialysate) DA in n. accumbens,rats [12],extracellular DA concentrations increase; also recorded: magnitude of effect on dialysate DA is lower than that of a full efficacy releaser
same,locomotor stimulation (horizontal locomotor activity),rats [13],smaller when compared to the full efficacy releaser
NC(=O)C[S+]([O-])C(c1ccccc1)c1ccccc1 (stereo not drawn) [modafinil],effect on cocaine-induced euphoria,human,blunted cocaine-induced euphoria
same,DA concentrations in the nucleus accumbens shell,[14],"increased DA concentrations in the nucleus accumbens shell, though also to a lesser extent than cocaine"
same,locomotor activity,"[6]; ref Cao et al., 2010","stimulated locomotor activity, though to a lesser extent than cocaine"
same,substitution for cocaine (drug discrimination),mice [15],fully substituted for cocaine
C[C@@H]1CN(CCCn2c3ccccc3c3ccccc32)C[C@H](C)N1 [rimcazole],effect on cocaine self-administration,rats [8]; 2011,blocked cocaine self-administration
CN[C@@H](C)Cc1ccccc1 [Methamphetamine],EC50,[2],0.0245 ± 0.0021 µM
CCNC(C)C(=O)c1ccccc1 (stereo not drawn) [N-Ethylpropion],EC50,SERT [16],2.12 ± 0.098 µM
same,IC50,[17],1.01 ± 0.08 µM
CC(N)Cc1ccc(F)cc1 (stereo not drawn) [PAL-303],DA/5-HT Ratio,[2]; [20],18
same,EC50,[2]; [21],0.0515 ± 0.0017 µM
same,EC50,SERT [3],0.939 ± 0.076 µM
Cc1ccc(CC(C)N)cc1 (stereo not drawn) [PAL-313],DA/5-HT Ratio,[2]; [20],1.2
same,EC50,[2]; [21],0.0441 ± 0.0026 µM
same,extracellular (dialysate) DA in n. accumbens,rats [12],lowest level of DA release in vivo
same,extracellular 5-HT in n. accumbens,rats [12]; Fig. 8,highest level of 5-HT release
same,locomotor stimulation (horizontal locomotor activity),rats [13],lowest levels of locomotor stimulation
same,EC50,SERT [3],0.0534 ± 0.0041 µM
CCCCN1[C@@H]2CC[C@H]1CC(OC(c1ccc(F)cc1)c1ccc(F)cc1)C2 (stereo partly drawn) [JHW 007],effect on cocaine-induced locomotor stimulation,"mice [7]; CB1R wild-type and knockout mice, co-injection, ref Desai et al., 2014",significantly blunted the locomotor stimulant effects of cocaine
same,effect on cocaine-induced locomotor stimulation,"mice [7]; DA D2R knockout and wild-type mice, ref Desai et al., 2014",blocked the stimulant effects of cocaine equally in both knockout and wild-type mice
same,modulation of CB1Rs,CB1Rs,positive-allosteric modulation of CB1Rs
Cc1ccc(-c2cc([C@@H]3C4CCC(C[C@@H]3c3ccc(Cl)cc3)N4C)on2)cc1 (stereo partly drawn) [RTI-336],affinity at sigma receptors,sigma receptors,relatively low affinity at sigma receptors
same,effect on cocaine self-administration dose-effect curve,rats [8],dose-related leftward shifts in the cocaine self-administration dose effect curve
same,self-administration of the compound versus vehicle,rats [10],self-administered at levels greater than vehicle
same,substitution for cocaine (drug discrimination),rats [11],fully substitutes
COC(=O)[C@H]1[C@@H](OC(=O)c2ccccc2)C[C@@H]2CC[C@H]1N2C [cocaine],loss in potency for Y335A compared with wild-type DAT,DAT Y335A,~100 fold
CNC(C)Cc1ccc2c(c1)OCO2 (stereo not drawn) [MDMA],DA Release EMAX,[2],103 ± 2%
same,EC50,[2]; read-out: DA Release EC50,0.108 ± 0.01 µM
CC(N)Cc1ccc2ccccc2c1 (stereo not drawn) [PAL-287],DA release in vivo (microdialysis),rats [18],released much less DA than expected
same,EC50,[4],1.25 ± 0.23 µM
same,locomotor stimulant effect,"[6]; compared to amphetamine, ref Rothman et al., 2005",weak locomotor stimulant
same,reinforcing effects,[19],lacked strong reinforcing effects
